Experimental data as given in patent US5688938A, “Calcium receptor-active molecules” (priority 1995, dated 1997).
Where two headings read alike, the source gives them in different places. Each block holds one compound with its values, some of them ahead of it.

How the values were obtained:
[1] = biological target: T1, parathyroid cell calcium receptor (Bos taurus, UniProt P35384); test: cell-based; format: cell-based; conditions: for effect on intracellular Ca^2+: 500 μM; for effect on [Ca^2+]i response to extracellular Mg^2+: ionomycin 1 μM, 1799 5 μM; for effect on basal [Ca^2+]i or increases evoked by extracellular Ca^2+: 1 μM
T1 sequence (P35384 21-1085 limits assumed): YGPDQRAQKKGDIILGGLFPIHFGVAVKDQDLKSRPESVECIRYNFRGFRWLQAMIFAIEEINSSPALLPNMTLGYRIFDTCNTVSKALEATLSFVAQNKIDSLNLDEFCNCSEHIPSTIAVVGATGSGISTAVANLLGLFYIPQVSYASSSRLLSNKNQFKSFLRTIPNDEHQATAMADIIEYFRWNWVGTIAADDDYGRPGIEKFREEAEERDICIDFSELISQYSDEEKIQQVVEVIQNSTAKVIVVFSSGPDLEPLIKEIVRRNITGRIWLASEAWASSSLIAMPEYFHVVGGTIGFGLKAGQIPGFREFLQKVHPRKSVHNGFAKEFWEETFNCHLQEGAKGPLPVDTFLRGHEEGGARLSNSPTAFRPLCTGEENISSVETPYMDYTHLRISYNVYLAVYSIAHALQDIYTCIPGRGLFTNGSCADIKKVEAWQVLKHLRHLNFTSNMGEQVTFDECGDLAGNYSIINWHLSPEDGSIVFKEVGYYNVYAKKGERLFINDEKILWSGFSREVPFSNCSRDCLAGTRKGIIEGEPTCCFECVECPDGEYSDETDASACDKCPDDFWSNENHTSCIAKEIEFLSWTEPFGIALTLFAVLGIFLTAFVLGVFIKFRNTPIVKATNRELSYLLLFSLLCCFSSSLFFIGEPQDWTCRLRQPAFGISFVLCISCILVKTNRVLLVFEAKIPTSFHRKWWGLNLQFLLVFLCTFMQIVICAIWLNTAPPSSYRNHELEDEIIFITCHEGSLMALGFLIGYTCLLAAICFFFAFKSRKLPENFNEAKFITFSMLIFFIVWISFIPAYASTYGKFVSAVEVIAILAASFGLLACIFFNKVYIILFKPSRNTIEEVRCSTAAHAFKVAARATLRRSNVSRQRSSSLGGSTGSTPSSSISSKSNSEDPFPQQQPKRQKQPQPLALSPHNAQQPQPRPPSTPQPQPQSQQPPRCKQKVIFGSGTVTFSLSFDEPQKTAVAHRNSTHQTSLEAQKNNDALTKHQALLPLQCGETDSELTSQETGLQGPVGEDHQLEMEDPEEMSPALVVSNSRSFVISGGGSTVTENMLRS

net positive charge = format: physicochemical; conditions: for Net (+) Charge: Table 1, at physiological pH
[2] = system: Ca^2+ influx in parathyroid cells; test: influx of extracellular Ca^2+ in bovine parathyroid cells; format: cell-based
[3] = Table 8 (arylalkylamine calcimimetics), parathyroid cell calcium receptor, read-out: EC50
[4] = Table 7, parathyroid cell calcium receptor, read-out: EC50
[5] = Table 6, bovine parathyroid cells, read-out: EC50 PARATHYROID

Compound: N=C(N)NCCC[C@H](N)C(=O)NCCCNCCCNCCCCCNC(=O)[C@H](CC(N)=O)NC(=O)Cc1c[nH]c2cccc(O)c12 [Argiotoxin-659, reference compound]
- EC50 [1]: 300000 nM
- increases in [Ca^2+]i ([1]; 100 to 300 μM): evoked transient increases in [Ca^2+ ]i
- EC50 ([1]; EC50 for mobilizing intracellular Ca^2+, bovine parathyroid cells): 300000 nM
- Net (+) Charge (net positive charge): +4

Compound: NC[C@H]1O[C@H](O[C@H]2[C@H](O)[C@@H](O[C@H]3O[C@H](CO)[C@@H](O)[C@H](N)[C@H]3O)[C@H](N)C[C@@H]2N)[C@H](N)[C@@H](O)[C@@H]1O [Bekanamycin]
- Net (+) Charge (net positive charge): +5
- net positive charge at pH 7.3 (net positive charge): +5

Compound: COc1ccc(CN[C@H](C)c2cccc3ccccc23)cc1 [Compound 13U]
- EC50 [1, 3]: 190 nM

Compound: C[C@@H](NCc1ccc2c(c1)OCCO2)c1cccc2ccccc12 [Compound 13X]
- EC50 [1, 3]: < 750 nM

- EC50 [1, 3]: 1700 nM
Compound: COc1ccc([C@H](C)N[C@H](C)c2cccc3ccccc23)cc1 [Compound 14V]

Compound: COc1ccc(CN[C@H](C)c2cccc3ccccc23)cc1C [Compound 16Q]
- EC50 [1, 3]: 40 nM

Compound: C[C@@H](NCc1ccc2c(c1)OCO2)c1cccc2ccccc12 [Compound 16R]
- EC50 [1, 3]: 360 nM

Compound: COc1ccc(CN[C@H](C)c2cccc3ccccc23)cc1F [Compound 16T]
- EC50 [1, 3]: 40 nM

Compound: Cc1ccc(CN[C@H](C)c2cccc3ccccc23)cc1C [Compound 16V]
- EC50 [1, 3]: < 130 nM

Compound: CCOc1ccc(CN[C@H](C)c2cccc3ccccc23)cc1 [Compound 16W]
- EC50 [1, 3]: 590 nM

Compound: CSc1ccc(CN[C@H](C)c2cccc3ccccc23)cc1 [Compound 16X]
- EC50 [1, 3]: 100 nM

Compound: COc1ccc([C@@H](C)N[C@H](C)c2cccc3ccccc23)cc1Cl [Compound 17X, (R,R)-N-(1-Ethyl-4'-methoxy-3'-chlorophenyl)-1-(1-naphthylethyl)amine]
- EC50 [1, 3]: 20 nM
- EC50 ([1]; parathyroid cell calcium receptor, […], read-out: EC50): < 5000 nM

Compound: COc1cccc([C@@H](C)NC2CCN(Cc3ccccc3)CC2)c1 [Compound 20F]
- EC50 [1, 3]: < 1000 nM

Compound: COc1ccc(CCCN[C@H](C)c2cccc(OC)c2)cc1 [Compound 20I]
- EC50 [1, 3]: > 1000 nM

Compound: COc1cccc([C@@H](C)NCCCc2ccc(OC)c(OC)c2)c1 [Compound 20J]
- EC50 [1, 3]: > 3000 nM

Compound: COc1cccc([C@H](C)NCCCc2ccc(OC)c(OC)c2)c1 [Compound 20K]
- EC50 [1, 4]: > 30000 nM

Compound: COc1cccc(C(C)NC(C)CCc2ccccc2)c1 (stereo not shown) [Compound 20R]
- EC50 [1, 3]: 2400 nM

Compound: CCC(CCc1ccccc1)NC(C)c1cccc(OC)c1 (stereo not shown) [Compound 20S]
- EC50 [1, 3]: 4200 nM

- EC50 [1, 3]: 3000 nM
Compound: COc1cccc([C@@H](C)N[C@H](C)CCc2ccccc2)c1 [Compound 21D]

- EC50 [1, 3]: 380 nM
Compound: C[C@H](CCc1ccccc1)N[C@H](C)c1cccc2ccccc12 [Compound 21F]

- EC50 [1, 3]: 1100 nM
Compound: C[C@@H](CCc1ccccc1)N[C@H](C)c1cccc2ccccc12 [Compound 21G]

Compound: COc1cccc([C@@H](C)NCCCc2ccccc2C(F)(F)F)c1 [Compound 21O]
- EC50 [1, 3]: 260 nM

Compound: COc1cccc([C@@H](C)NCCCc2ccc(C(F)(F)F)cc2)c1 [Compound 21Q]
- EC50 [1, 3]: 1400 nM

- potentiation of mobilization of intracellular Ca^2+ elicited by extracellular divalent cations ([1]; 100 μM): potentiated the mobilization
- change in [Ca^2+]i at low extracellular Ca^2+ ([1]; 100 μM, 0.5 mM extracellular Ca^2+): evoked no change in [Ca^2+ ]i
- increase in [Ca^2+]i at intermediate extracellular Ca^2+ ([1]; 100 μM, 1-[…] extracellular Ca^2+): small, but robust increase
Compound: COc1ccc(CCN(C)CCCC(C#N)(c2cc(OC)c(OC)c(OC)c2)C(C)C)cc1OC [Compound D-600, reference compound]
- block of influx of extracellular Ca^2+ ([2]; 100 μM): blocked the influx

Compound: NC[C@H]1O[C@H](O[C@H]2[C@H](O)[C@@H](O[C@H]3O[C@H](CO)[C@@H](O)[C@H](N)[C@H]3O)[C@H](N)C[C@@H]2N)[C@H](O)[C@@H](O)[C@@H]1O [Kanamycin, reference compound]
- effect on intracellular Ca^2+ [1]: without effect
- net positive charge at pH 7.3 (net positive charge): ~+4.5

- Net (+) Charge (net positive charge): +10
Compound: NCCCN(CCCN)CCCN(CCCN)CCCCN(CCCN)CCCN(CCCN)CCCN [NPS 381, N^1, N^1, N^5, N^10, N^14, N^14-hexakis-(3-aminopropyl) spermine]

Compound: NCCCN(CCCN)CCCNCCCCNCCCN(CCCN)CCCN [NPS 382, N^1, N^1, N^5, N^14, N^14-tetrakis-(3-aminopropyl)spermine]
- Net (+) Charge (net positive charge): +8

- Net (+) Charge (net positive charge): +8
Compound: NCCCN1CCCN(CCCN)CCN(CCCN)CCCN(CCCN)CC1 [NPS 383]

- increase in [Ca^2+]i ([1]; 300 μM): did not evoke an increase in [Ca^2+ ]i
- potentiation of transient increases in [Ca^2+]i ([1]; 300 μM): fails to do so
Compound: COc1ccc(CC(=O)NCCCCCCCCCCCCN)cc1OC [NPS 384]
- block of influx of extracellular Ca^2+ ([2]; 300 μM): blocked influx of extracellular Ca^2+
- [Ca^2+]i ([2]; 100 to 1000 μM, 2 mM CaCl2): prompt fall in [Ca^2+ ]i
- effect on increases in [Ca^2+]i elicited by extracellular Ca^2+ ([2]; pretreatment): depresses steady-state, but not transient increases in [Ca^2+ ]i

- EC50 [1, 5]: > 30000 nM
- EC50 [1, 4]: > 30000 nM
Compound: COc1cccc([C@H](C)NCCCc2ccccc2)c1 [NPS S-467]

Compound: CCCCCCCCCCCCCC(=O)O[C@@H]1[C@@H](C)[C@@]2(O)[C@@H](C=C(CO)C[C@]3(O)C(=O)C(C)=C[C@@H]23)[C@@H]2C(C)(C)[C@]12OC(C)=O [PMA, phorbol myristate acetate, reference compound]
- effect on mobilization of intracellular Ca^2+ elicited by molecular polycations [1]: depressed

Compound: CCCC(=O)N[C@@H](Cc1ccc(O)cc1)C(=O)NCCCCNCCCNCCCN [Philanthotoxin-433, reference compound]
- effect on intracellular Ca^2+ [1]: without effect

Compound: C[C@@H](NCCC(c1ccccc1)c1ccccc1)c1ccccc1 [R-Fendiline]
- EC50 [1, 5]: 9000 nM
- EC50 [1, 4]: 9000 nM

Compound: C[C@H](NCCC(c1ccccc1)c1ccccc1)c1ccccc1 [S-Fendiline]
- EC50 [1, 4]: > 15000 nM

Compound: [H]/N=C(/N)N[C@H]1[C@H](O)[C@@H](O)[C@H](O[C@@H]2O[C@@H](C)[C@](O)(C=O)[C@H]2O[C@@H]2O[C@@H](CO)[C@H](O)[C@@H](O)[C@@H]2NC)[C@@H](N/C(N)=N\[H])[C@@H]1O [Streptomycin]
- Net (+) Charge (net positive charge): +3
- net positive charge at pH 7.3 (net positive charge): +3

- Net (+) Charge (net positive charge): +5
Compound: NCCNCCNCCNCCN [TEPA, Tetraethylenepentamine]

- Net (+) Charge (net positive charge): +4
Compound: NCCNCCNCCN [TETA, Triethylenetramine]

- effective at 100 μM (as verapamil and D-600) ([1]; 100 μM): effective
Compound: COc1ccc([C@@H]2Sc3ccccc3N(CCN(C)C)C(=O)[C@@H]2OC(C)=O)cc1 [diltiazem, reference compound]

Compound: C[C@H](CCC(=O)O)C[C@H](C)C[C@H](C)C(=O)/C=C(\O)[C@H](C)C[C@H](C)C/C=C/[C@@H](C)[C@@H](O)[C@@H](C)[C@@H](O)C[C@@H]1CC[C@@](C)([C@H]2CC[C@@](C)([C@@H](C)O)O2)O1 [ionomycin, reference compound]
- effect on [Ca^2+]i response to extracellular Mg^2+ [1]: blocks the response to Mg^2+

- effect on intracellular Ca^2+ [1]: without effect
- net positive charge at pH 7.3 (net positive charge): +1
Compound: CCC[C@@H]1C[C@@H](C(=O)N[C@@H]([C@H]2O[C@H](SC)[C@H](O)[C@@H](O)[C@H]2O)[C@@H](C)O)N(C)C1 [lincomycin, reference compound]

- relative potency ([1]; in words): as potent as NPS 467
Compound: COc1cccc(C(C)NCCC(c2ccccc2)c2ccccc2)c1 (stereo not shown) [meta-Methoxyfendiline]

- effect on [Ca^2+]i response to extracellular Mg^2+ [1]: without effect on the response to Mg^2+
Compound: O=C(CC(O)(C(F)(F)F)C(F)(F)F)CC(O)(C(F)(F)F)C(F)(F)F [molecule 1799, reference compound]

Compound: COC(=O)C1=C(C)NC(C)=C(C(=O)OC)C1c1ccccc1[N+](=O)[O-] [nifedipine, reference compound]
- effect on basal [Ca^2+]i or increases evoked by extracellular Ca^2+ [1]: None of the dihydropyridines tested

- effect on basal [Ca^2+]i or increases evoked by extracellular Ca^2+ [1]: None of the dihydropyridines tested
Compound: CCOC(=O)C1=C(C)NC(C)=C(C(=O)OC)C1c1cccc([N+](=O)[O-])c1 (stereo not shown) [nitrendipine, reference compound]

Compound: N[C@@H](Cn1oc(=O)[nH]c1=O)C(=O)O [quisqualate, reference compound]
- response to mGluR agonists ([1]; bovine parathyroid cells, or Xenopus oocytes expressing calcium receptors): did not respond

Compound: Gentamicin
- Net (+) Charge (net positive charge): +5
- net positive charge at pH 7.3 (net positive charge): +5
